# Reference: patent publication US11685729B2, “C5a receptor modulators” (IDORSIA PHARMACEUTICALS LTD., priority 2018, dated 2023)
# Target: C5AR1 (Homo sapiens (Human), UniProt P21730)
# Experiment: In vitro assay: PathHunter beta-arrestin antagonist assay in CHO-K1 C5AR1 beta-arrestin cell line, stimulated with C5a agonist
# Conditions: read-out: C5aR IC50; CHO-K1 C5AR1 beta-arrestin cell line; 1-10 nM C5a agonist; geometric mean values
# Description: 5 μl Antagonist at 6-fold end concentration or DMSO control is added to assay medium and subsequently 5 μl 1-10 nM C5a agonist at 6 fold end concentration. Cells are centrifuged for 1 min at 1000 rpm and incubated for 1.5 hour in at 37° C. Plates are equilibrated at room temperature for several minutes before adding 12 μI/well Detection Reagent (PathHunter Detection Kit, DiscoverX, Cat #93-0001). Plates are centrifuged for 1 min at 1000 rpm and incubated for 45 minutes at RT before being measured on a Fluostar Optima, BMG Labtech. IC50 values are calculated from a serial dilution range of antagonist using inhouse software and given in nmol/l.
# The calculated IC50 values may fluctuate depending on the daily cellular assay performance. […] Average IC50 values from several measurements are given as geometric mean values.
# Chain of C5AR1 (P21730 whole entry): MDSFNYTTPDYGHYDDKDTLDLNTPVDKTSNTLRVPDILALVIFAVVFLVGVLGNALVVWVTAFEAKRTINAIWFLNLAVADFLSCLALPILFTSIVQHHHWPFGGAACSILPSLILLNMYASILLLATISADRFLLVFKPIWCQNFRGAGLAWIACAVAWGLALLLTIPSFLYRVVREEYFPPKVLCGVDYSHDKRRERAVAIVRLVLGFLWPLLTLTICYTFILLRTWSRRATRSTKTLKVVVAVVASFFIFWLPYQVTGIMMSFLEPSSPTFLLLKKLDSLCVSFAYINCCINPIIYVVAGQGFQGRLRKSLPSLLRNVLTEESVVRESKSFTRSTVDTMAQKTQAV
row,Compound,IC50
1,"COc1ccccc1CN1C(=O)N([C@@H]2CCN(c3c(C)cccc3F)C2)Cc2ccccc21 [Example 35, 3-[(R)-1-(2-Fluoro-6-methyl-phenyl)-pyrrolidin-3-yl]-1-(2-methoxy-benzyl)-3,4-dihydro-1H-quinazolin-2-one]",43 nM
2,"COc1ccccc1CN1C(=O)N(C2CCN(c3c(C)cccc3C)CC2)Cc2ccccc21 [Example 36, 3-[1-(2,6-Dimethyl-phenyl)-piperidin-4-yl]-1-(2-methoxy-benzyl)-3,4-dihydro-1H-quinazolin-2-one]",199 nM
3,"COc1ccccc1CN1C(=O)N(C2CCN(c3c(C)cccc3F)CC2)Cc2ccccc21 [Example 37, 3-[1-(2-Fluoro-6-methyl-phenyl)-piperidin-4-yl]-1-(2-methoxy-benzyl)-3,4-dihydro-1H-quinazolin-2-one]",138 nM
4,"N#Cc1cccc(F)c1N1CCC(N2Cc3ccccc3N(Cc3nccnc3C(F)(F)F)C2=O)CC1 [Example 38, 3-Fluoro-2-{4-[2-oxo-1-(3-trifluoromethyl-pyrazin-2-ylmethyl)-1,4-dihydro-2H-quinazolin-3-yl]-piperidin-1-yl}-benzonitrile]",211 nM
5,"COc1nccnc1CN1C(=O)N(C2CCN(c3c(F)cccc3C#N)CC2)Cc2ccccc21 [Example 39, 3-Fluoro-2-{4-[1-(3-methoxy-pyrazin-2-ylmethyl)-2-oxo-1,4-dihydro-2H-quinazolin-3-yl]-piperidin-1-yl}-benzonitrile]",1050 nM
6,"COc1ccccc1C(C)N1C(=O)N(C2CCN(c3c(C)cccc3F)CC2)Cc2ccccc21 (stereo not drawn) [Example 40, 3-[1-(2-Fluoro-6-methyl-phenyl)-piperidin-4-yl]-1-[1-(2-methoxy-phenyl)-ethyl]-3,4-dihydro-1H-quinazolin-2-one]",135 nM
7,"Cc1cccc(F)c1N1CCC(N2Cc3ccnnc3N(Cc3ccccc3C(F)(F)F)C2=O)CC1 [Example 41, 6-[1-(2-Fluoro-6-methyl-phenyl)-piperidin-4-yl]-8-(2-trifluoromethyl-benzyl)-5,8-dihydro-6H-pyrimido[4,5-c]pyridazin-7-one]",109 nM
8,"Cc1cccc(F)c1N1CCC(N2Cc3ccccc3N(Cc3nccnc3C(F)(F)F)C2=O)CC1 [Example 42, 3-[1-(2-Fluoro-6-methyl-phenyl)-piperidin-4-yl]-1-(3-trifluoromethyl-pyrazin-2-ylmethyl)-3,4-dihydro-1H-quinazolin-2-one]",63 nM
9,"COc1nccnc1CN1C(=O)N(C2CCN(c3c(C)cccc3F)CC2)Cc2ccccc21 [Example 43, 3-[1-(2-Fluoro-6-methyl-phenyl)-piperidin-4-yl]-1-(3-methoxy-pyrazin-2-ylmethyl)-3,4-dihydro-1H-quinazolin-2-one]",299 nM
10,"Cc1cccc(F)c1N1CCC(N2Cc3ccccc3N(Cc3ccccc3OC(C)C)C2=O)CC1 [Example 44, 3-[1-(2-Fluoro-6-methyl-phenyl)-piperidin-4-yl]-1-(2-isopropoxy-benzyl)-3,4-dihydro-1H-quinazolin-2-one]",33 nM
11,"Cc1cccc(F)c1N1CCC(N2Cc3ccccc3N(C(C)c3ccccc3C(F)(F)F)C2=O)CC1 (stereo not drawn) [Example 45, 3-[1-(2-Fluoro-6-methyl-phenyl)-piperidin-4-yl]-1-[1-(2-trifluoromethyl-phenyl)-ethyl]-3,4-dihydro-1H-quinazolin-2-one]",191 nM
12,"CCOc1ccccc1CN1C(=O)N(C2CCN(c3c(C)cccc3F)CC2)Cc2ccccc21 [Example 46, 1-(2-Ethoxy-benzyl)-3-[1-(2-fluoro-6-methyl-phenyl)-piperidin-4-yl]-3,4-dihydro-1H-quinazolin-2-one]",35 nM
13,"Cc1cccc(F)c1N1CCC(N2Cc3ccccc3N(Cc3ccccc3OCCN(C)C)C2=O)CC1 [Example 47, 1-[2-(2-Dimethylamino-ethoxy)-benzyl]-3-[1-(2-fluoro-6-methyl-phenyl)-piperidin-4-yl]-3,4-dihydro-1H-quinazolin-2-one]",1660 nM
14,"CC(=O)OCCOc1ccccc1CN1C(=O)N(C2CCN(c3c(C)cccc3F)CC2)Cc2ccccc21 [Example 48, Acetic acid 2-(2-{3-[1-(2-fluoro-6-methyl-phenyl)-piperidin-4-yl]-2-oxo-3,4-dihydro-2H-quinazolin-1-ylmethyl}-phenoxy)-ethyl ester]",298 nM
15,"COC(=O)C(c1ccccc1OC)N1C(=O)N(C2CCN(c3c(C)cccc3F)CC2)Cc2ccccc21 (stereo not drawn) [Example 49, {3-[1-(2-Fluoro-6-methyl-phenyl)-piperidin-4-yl]-2-oxo-3,4-dihydro-2H-quinazolin-1-yl}-(2-methoxy-phenyl)-acetic acid methyl ester]",102 nM
16,"Cc1cccc(F)c1N1CCC(N2Cc3ccccc3N(Cc3ccccc3OCCO)C2=O)CC1 [Example 50, 3-[1-(2-Fluoro-6-methyl-phenyl)-piperidin-4-yl]-1-[2-(2-hydroxy-ethoxy)-benzyl]-3,4-dihydro-1H-quinazolin-2-one]",2560 nM
17,"Cc1cccc(F)c1N1CCC(N2Cc3ccccc3N(Cc3ccccc3OC3COC3)C2=O)CC1 [Example 51, 3-[1-(2-Fluoro-6-methyl-phenyl)-piperidin-4-yl]-1-[2-(oxetan-3-yloxy)-benzyl]-3,4-dihydro-1H-quinazolin-2-one]",113 nM
18,"Cc1cccc(F)c1N1CCC(N2Cc3ccccc3N(Cc3ccccc3OC3CCC3)C2=O)CC1 [Example 52, 1-(2-Cyclobutoxy-benzyl)-3-[1-(2-fluoro-6-methyl-phenyl)-piperidin-4-yl]-3,4-dihydro-1H-quinazolin-2-one]",69 nM
19,"Cc1cccc(F)c1N1CCC(N2Cc3ccccc3N(Cc3ccccc3OC3CCOCC3)C2=O)CC1 [Example 53, 3-[1-(2-Fluoro-6-methyl-phenyl)-piperidin-4-yl]-1-[2-(tetrahydro-pyran-4-yloxy)-benzyl]-3,4-dihydro-1H-quinazolin-2-one]",32 nM
20,"Cc1cccc(F)c1N1CCC(N2Cc3ccccc3N(Cc3ccccc3OCC3CC3)C2=O)CC1 [Example 54, 1-(2-Cyclopropylmethoxy-benzyl)-3-[1-(2-fluoro-6-methyl-phenyl)-piperidin-4-yl]-3,4-dihydro-1H-quinazolin-2-one]",66 nM
21,"Cc1cccc(F)c1N1CCC(N2Cc3ccccc3N(Cc3ccccc3OCC#N)C2=O)CC1 [Example 55, (2-{3-[1-(2-Fluoro-6-methyl-phenyl)-piperidin-4-yl]-2-oxo-3,4-dihydro-2H-quinazolin-1-ylmethyl}-phenoxy)-acetonitrile]",512 nM
22,"Cc1cccc(F)c1N1CCC(N2Cc3ccccc3N(Cc3ccccc3C3CC3)C2=O)CC1 [Example 56, 1-(2-Cyclopropyl-benzyl)-3-[1-(2-fluoro-6-methyl-phenyl)-piperidin-4-yl]-3,4-dihydro-1H-quinazolin-2-one]",28 nM
23,"Cc1cccc(F)c1N1CCC(N2Cc3ccccc3N(Cc3ccccc3C(C)C)C2=O)CC1 [Example 57, 3-[1-(2-Fluoro-6-methyl-phenyl)-piperidin-4-yl]-1-(2-isopropyl-benzyl)-3,4-dihydro-1H-quinazolin-2-one]",24 nM
24,"Cc1cccc(F)c1N1CCC(N2Cc3nccnc3N(Cc3ccccc3C(F)(F)F)C2=O)CC1 [Example 58, 3-[1-(2-Fluoro-6-methyl-phenyl)-piperidin-4-yl]-1-(2-trifluoromethyl-benzyl)-3,4-dihydro-1H-pteridin-2-one]",21 nM
